Source: patent US6399643B1, “Spiroimidazolidine derivatives, their preparation, their use and pharmaceutical preparations formed therefrom” (Aventis Pharma Deutschland GmbH, priority 1999, dated 2002)
pIC50: −log10 of the molar value. Where a name gives a salt, the structure may show the parent alone.

The molecules below were run against T1, interaction between VCAM-1 and VLA-4 (Homo sapiens, UniProt P05556+P13612) (assay: U937/VCAM-1 cell adhesion test (adhesion of U937 cells to hVCAM-1(1-3)-IgG)). Details: inhibition of adhesion of human U937 cells (ATCC CRL 1593) to hVCAM-1(1-3)-IgG.
T1 construct: supplied in their natural form as surface molecules on human U937 cells; host or cells: human U937 cells (VLA-4, endogenous); the partner hVCAM-1(1-3)-IgG was made in house in transfected COS cells (ATCC CRL1651) and used as culture supernatant
Assay type: cell-based
Description: A) U937/VCAM-1 Cell Adhesion Test
The test method used for the activity of the compounds of the formula I on the interaction between VCAM-1 and VLA-4 is the assay described below, which is specific for this interaction. The cellular binding components, that is the VLA-4 integrins, are supplied in their natural form as surface molecules on human U937 cells (ATCC CRL 1593), which belong to the leukocytes group. The specific binding components used are genetically engineered recombinant soluble fusion proteins, consisting of the extracytoplasmic domain of human VCAM-1 and the constant region of a human immunoglobulin of the subclass IgG1.
Assay for the Measurement of the Adhesion of U937 Cells (ATCC CRL 1593) to hVCAM-1 (1-3)-IgG
1. Preparation of Human VCAM-1(1-3)-IgG and Human CD4-IgG
A genetic construct for the expression of the extracellular domain of human VCAM-1, combined with the genetic sequence of the heavy chain of human immunoglobulin IgG1 (hinge, CH2 and CH3 regions) (from Brian Seed, Massachusetts General Hospital, Boston, USA; cf. Damle and Aruffo, Proc. Natl. Acad. Sci. USA 1991, 88, 6403), was employed. The soluble fusion protein hVCAM-1(1-3)-IgG contained the three aminoterminal extracellular immunoglobulin-like domains of human VCAM-1 (Damle and Aruffo, Proc. Natl. Acad. Sci. USA 1991, 88, 6403). CD4-IgG (Zettlmeissl et al., DNA and Cell Biology 1990, 9, 347) served as a fusion protein for negative controls. The recombinant proteins were expressed as soluble proteins after DEAE/dextran-mediated DNA transfection in COS cells (ATCC CRL1651) according to standard procedures (Ausubel et al., Current protocols in molecular biology, John Wiley & Sons, Inc., 1994).
2. Assay for the Measurement of the Adhesion of U937 Cells to hVCAM-1(1-3)-IgG
2.1 96-well microtiter test plates (Nunc Maxisorb) were incubated at room temperature for 1 hour with 100 μl/well of a goat-anti-human IgG antibody solution (10 μg/ml in 50 mM tris, pH 9.5). After removal of the antibody solution, washing was carried out once with PBS.
2.2 150 μl/well of a blocking buffer (1% BSA in PBS) were incubated on the plates at room temperature for 0.5 hour. After removal of the blocking buffer, washing was carried out once with PBS.
2.3 100 μl per well of a cell culture supernatant of transfected COS cells were incubated on the plates at room temperature for 1.5 hours. The COS cells were transfected with a plasmid which codes for the three N-terminal immunoglobulin-like domains of VCAM-1, coupled to the Fc portion of human IgG1 (hVCAM-1 (1-3)-IgG). The content of hVCAM-1(1-3)-IgG was about 0.5-1 μg/ml. After removing the culture supernatant, washing was carried out once with PBS.
2.4 The plates were incubated at room temperature for 20 minutes with 100 μl/well of Fc receptor blocking buffer (1 mg/ml of γ-globulin, 100 mM NaCl, 100 μM MgCl2, 100 μM MnCl2, 100 μM CaCl2, 1 mg/ml of BSA in 50 mM HEPES, pH 7.5). After removal of the Fc receptor blocking buffer, washing was carried out once with PBS.
2.5 20 μl of binding buffer (100 μM NaCl, 100 μM MgCl2, 100 μM MnCl2, 100 μM CaCl2, 1 mg/ml of BSA in 50 mM HEPES, pH 7.5) were initially introduced, and the substances to be tested were added in 10 μl of binding buffer and incubated for 20 minutes. The controls used were antibodies against VCAM-1(BBT, No. BBA6) and against VLA-4(Immunotech, No. 0764).
2.6 U937 cells were incubated in Fc receptor blocking buffer for 20 minutes and then pipetted in at a concentration of 1×10^6/ml and in an amount of 100 μl per well ([…]).
2.7 The plates were slowly immersed at an angle of 45° in stop buffer (100 mM NaCl, 100 μM MgCl2, 100 μM MnCl2, 100 μM CaCl2 in 25 mM Tris, pH 7.5) and shaken off. The process was repeated.
2.8 50 μl/well of a dye solution ([…] of Hoechst Dye 33258, 4% formaldehyde, 0.5% Triton X-100 in PBS) were then incubated on the plates for 15 minutes. […]

T1 sequence (P13612 34-1032): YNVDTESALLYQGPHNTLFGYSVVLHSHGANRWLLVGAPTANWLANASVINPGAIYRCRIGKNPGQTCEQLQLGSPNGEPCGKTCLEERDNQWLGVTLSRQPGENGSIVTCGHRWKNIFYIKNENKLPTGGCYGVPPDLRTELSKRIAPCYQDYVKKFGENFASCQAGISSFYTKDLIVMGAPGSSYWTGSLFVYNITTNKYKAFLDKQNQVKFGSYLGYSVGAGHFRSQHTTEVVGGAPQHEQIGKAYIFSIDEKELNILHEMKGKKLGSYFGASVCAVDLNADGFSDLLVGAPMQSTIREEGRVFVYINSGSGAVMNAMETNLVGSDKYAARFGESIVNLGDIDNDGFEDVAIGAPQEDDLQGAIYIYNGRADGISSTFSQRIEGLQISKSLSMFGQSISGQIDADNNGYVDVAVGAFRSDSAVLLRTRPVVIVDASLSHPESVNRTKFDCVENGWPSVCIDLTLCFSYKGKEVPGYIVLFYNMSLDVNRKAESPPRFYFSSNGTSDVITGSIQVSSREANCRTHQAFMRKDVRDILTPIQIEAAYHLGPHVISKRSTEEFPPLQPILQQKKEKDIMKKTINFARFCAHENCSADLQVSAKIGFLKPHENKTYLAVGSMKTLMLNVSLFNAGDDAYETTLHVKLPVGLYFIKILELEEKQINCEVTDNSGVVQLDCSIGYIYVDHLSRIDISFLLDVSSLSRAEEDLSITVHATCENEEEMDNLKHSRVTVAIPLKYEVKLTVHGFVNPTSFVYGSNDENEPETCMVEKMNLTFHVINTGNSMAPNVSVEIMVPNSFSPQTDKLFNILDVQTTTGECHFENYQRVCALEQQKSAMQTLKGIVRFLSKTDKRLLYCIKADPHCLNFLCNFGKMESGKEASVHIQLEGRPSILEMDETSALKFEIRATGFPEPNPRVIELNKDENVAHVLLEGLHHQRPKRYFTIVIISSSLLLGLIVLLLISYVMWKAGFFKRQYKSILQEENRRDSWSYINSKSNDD
T1 sequence (P05556 21-798): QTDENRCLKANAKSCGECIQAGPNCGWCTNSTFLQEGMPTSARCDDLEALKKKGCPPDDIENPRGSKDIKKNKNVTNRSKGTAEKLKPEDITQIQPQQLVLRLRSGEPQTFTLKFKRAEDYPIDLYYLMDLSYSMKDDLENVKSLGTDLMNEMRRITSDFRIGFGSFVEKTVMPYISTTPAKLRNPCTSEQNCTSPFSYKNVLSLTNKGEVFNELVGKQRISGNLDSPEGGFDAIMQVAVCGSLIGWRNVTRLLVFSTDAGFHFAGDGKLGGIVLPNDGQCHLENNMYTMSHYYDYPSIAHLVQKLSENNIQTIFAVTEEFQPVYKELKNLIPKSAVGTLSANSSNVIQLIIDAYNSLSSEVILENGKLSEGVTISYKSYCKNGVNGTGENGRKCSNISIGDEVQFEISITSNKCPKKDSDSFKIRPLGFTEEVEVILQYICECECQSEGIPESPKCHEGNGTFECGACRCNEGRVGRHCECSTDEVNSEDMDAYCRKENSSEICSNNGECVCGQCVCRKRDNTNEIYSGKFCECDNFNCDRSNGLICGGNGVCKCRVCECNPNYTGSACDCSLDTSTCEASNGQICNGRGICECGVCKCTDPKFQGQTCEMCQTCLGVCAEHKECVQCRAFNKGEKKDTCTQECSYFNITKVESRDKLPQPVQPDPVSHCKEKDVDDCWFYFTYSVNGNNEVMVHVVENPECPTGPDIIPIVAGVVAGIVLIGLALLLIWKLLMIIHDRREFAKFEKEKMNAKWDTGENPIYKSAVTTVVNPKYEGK

Compound	pIC50
COc1ccc([C@H](CC(=O)O)NC(=O)[C@H](CC(C)C)N2C(=O)N(Cc3ccc(NC(=O)Nc4ccccc4C)cc3)C3(CCCCC3)C2=O)cc1 [Example 26, (S)-3-((S)-2-(4,4-Pentamethylene-3-(4-(3-(2-methylphenyl)ureido)benzyl)-2,5-dioxoimidazolidin-1-yl)-2-(2-methylpropyl)acetylamino)-3-(4-methoxyphenyl)propionic acid]	8.59
COc1ccc([C@H](CC(=O)O)NC(=O)[C@H](CC(C)C)N2C(=O)N(Cc3ccc(NC(=O)Nc4ccccc4C)cc3)C3(CCCCC3)C2=O)cc1 [Example 27, (S)-3-((S)-2-(4,4-Pentamethylene-3-(4-(3-(2-methylphenyl)ureido)benzyl)-2,5-dioxoimidazolidin-1-yl)-2-(2-methylpropyl)acetylamino)-3-(4-methoxyphenyl)propionic acid tromethamine salt]	8.47
COc1ccc([C@H](CC(=O)O)NC(=O)[C@H](CC(C)C)N2C(=O)N(Cc3ccc(NC(=O)Nc4ccccc4C)cc3)C3(CCCCC3)C2=O)c(OC)c1 [Example 28, (S)-3-((S)-2-(4,4-Pentamethylene-3-(4-(3-(2-methyphenyl)ureido)benzyl)-2,5-dioxoimidazolidin-1-yl)-2-(2-methylpropyl)acetylamino)-3-(2,4-dimethoxyphenyl)propionic acid]	8.68
COc1ccc([C@H](CC(=O)O)NC(=O)[C@H](CC(C)C)N2C(=O)N(Cc3ccc(NC(=O)Nc4ccccc4C)cc3)C3(CCCCC3)C2=O)c(OC)c1 [Example 29, (S)-3-((S)-2-(4,4-Pentamethylene-3-(4-(3-(2-methylphenyl)ureido)benzyl-2,5-dioxoimidazolidin-1-yl)-2-(2-methylpropyl)acetylamino)-3-(2,4-dimethoxyphenyl)propionic acid tromethamine salt]	8.72
COc1ccc([C@H](CC(=O)O)NC(=O)[C@H](CC(C)C)N2C(=O)N(Cc3ccc(NC(=O)Nc4ccccc4C)cc3)C3(CCCCC3)C2=O)c(OC)c1 [Example 30, (S)-3-((S)-2-(4,4-Pentamethylene-3-(4-(3-(2-methylphenyl)ureido)benzyl)-2,5-dioxoimidazolidin-1-yl)-2-(2-methylpropyl)acetylamino)-3-(2,4-dimethoxyphenyl)propionic acid sodium salt]	8.44
COc1ccc([C@H](CC(=O)O)NC(=O)[C@H](CC(C)C)N2C(=O)N(Cc3ccc(NC(=O)Nc4ccccc4C)cc3)C3(CCCCC3)C2=O)cc1OC [Example 31, (S)-3-((S)-2-(4,4-Pentamethylene-3-(4-(3-(2-methylphenyl)ureido)benzyl)-2,5-dioxoimidazolidin-1-yl)-2-(2-methylpropyl)acetylamino)-3-(3,4-dimethoxyphenyl)propionic acid]	9.10
COc1ccc([C@H](CC(=O)O)NC(=O)[C@H](CC(C)C)N2C(=O)N(Cc3ccc(NC(=O)Nc4ccccc4C)cc3)C3(CCCCC3)C2=O)cc1OC [Example 32, (S)-3-((S)-2-(4,4-Pentamethylene-3-(4-(3-(2-methylphenyl)ureido)benzyl)-2,5-dioxoimidazolidin-1-yl)-2-(2-methylpropyl)acetylamino)-3-(3,4-dimethoxyphenyl)propionic acid tromethamine salt]	9.22
COc1ccc([C@H](CC(=O)O)NC(=O)[C@H](CC(C)C)N2C(=O)N(Cc3ccc(NC(=O)Nc4ccccc4C)cc3)C3(CCCCC3)C2=O)cc1OC [Example 33, (S)-3-((S)-2-(4,4-Pentamethylene-3-(4-(3-(2-methylphenyl)ureido)benzyl)-2,5-dioxoimidazolidin-1-yl)-2-(2-methylpropyl)acetylamino)-3-(3,4-dimethoxyphenyl)propionic acid sodium salt]	8.89
Cc1ccccc1NC(=O)Nc1ccc(CN2C(=O)N([C@@H](CC(C)C)C(=O)N[C@@H](CC(=O)O)c3ccc4c(c3)OCCO4)C(=O)C23CCCCC3)cc1 [Example 34, (S)-3-((S)-2-(4,4-Pentamethylene-3-(4-(3-(2-methylphenyl)ureido)benzyl)-2,5-dioxoimidazolidin-1-yl)-2-(2-methylpropyl)acetylamino)-3-(3,4-ethylenedioxyphenyl)propionic acid]	8.74

Now from value to molecule:

pIC50	Compound
8.47	Cc1ccccc1NC(=O)Nc1ccc(CN2C(=O)N([C@@H](CC(C)C)C(=O)N[C@@H](CC(=O)O)c3ccc4c(c3)OCCO4)C(=O)C23CCCCC3)cc1 [Example 35, (S)-3-((S)-2-(4,4-Pentamethylene-3-(4-(3-(2-methylphenyl)ureido)benzyl)-2,5-dioxoimidazolidin-1-yl)-2-(2-methylpropyl)acetylamino)-3-(3,4-ethylenedioxyphenyl)propionic acid sodium salt]
8.89	COc1cc(CN2C(=O)N([C@@H](CC(C)C)C(=O)N[C@@H](CC(=O)O)c3ccc(OC)c(OC)c3)C(=O)C23CCCCC3)ccc1NC(=O)Nc1ccccc1C [Example 37, (S)-3-((S)-2-(4,4-Pentamethylene-3-(4-(3-(2-methylphenyl)ureido)-3-methoxybenzyl)-2,5-dioxoimidazolidin-1-yl)-2-(2-methylpropyl)acetylamino)-3-(3,4-dimethoxyphenyl)propionic acid]
8.80	COc1cc(CN2C(=O)N([C@@H](CC(C)C)C(=O)N[C@@H](CC(=O)O)c3ccc(OC)c(OC)c3)C(=O)C23CCCCC3)ccc1NC(=O)Nc1ccccc1C [Example 38, (S)-3-((S)-2-(4,4-Pentamethylene-3-(4-(3-(2-methylphenyl)ureido)-3-methoxybenzyl)-2,5-dioxoimidazolidin-1-yl)-2-(2-methylpropyl)acetylamino)-3-(3,4-dimethoxyphenyl)propionic acid tromethamine salt]
9.10	COc1ccc([C@H](CC(=O)O)NC(=O)[C@H](CC2CC2)N2C(=O)N(Cc3ccc(NC(=O)Nc4ccccc4C)cc3)C3(CCCCC3)C2=O)cc1OC [Example 39, (S)-3-((S)-2-(4,4-Pentamethylene-3-(4-(3-(2-methylphenyl)ureido)benzyl)-2,5-dioxoimidazolidin-1-yl)-2-cyclopropylmethylacetylamino)-3-(3,4-dimethoxyphenyl)propionic acid]
8.68	COc1ccc([C@H](CC(=O)O)NC(=O)[C@H](CC2CC2)N2C(=O)N(Cc3ccc(NC(=O)Nc4ccccc4C)cc3)C3(CCCCC3)C2=O)c(OC)c1 [Example 40, (S)-3-((S)-2-(4,4-Pentamethylene-3-(4-(3-(2-methylphenyl)ureido)benzyl)-2,5-dioxoimidazolidin-1-yl)-2-cyclopropylmethylacetylamino)-3-(2,4-dimethoxyphenyl)propionic acid]
8.64	COc1ccc([C@H](CC(=O)O)NC(=O)[C@H](CC2CC2)N2C(=O)N(Cc3ccc(NC(=O)Nc4ccccc4C)cc3)C3(CCCCC3)C2=O)c(OC)c1 [Example 41, (S)-3-((S)-2-(4,4-Pentamethylene-3-(4-(3-(2-methylphenyl)ureido)benzyl)-2,5-dioxoimidazolidin-1-yl)-2-cyclopropylmethylacetylamino)-3-(2,4-dimethoxyphenyl)propionic acid sodium salt]
